According to the METLIN SMRT retention time set (Domingo-Almenara et al. 2019):

test: gradient 5% acetonitrile 3 min, to 50% in 2 min, to 85% in 15 min, held 3 min, 100 µL/min; settings: column: Zorbax Extend-C18 2.1 x 50 mm; eluents: water / acetonitrile, 0.1% formic acid
Outline: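 Data were gathered over 3 months by HPLC coupled to a quadrupole time-of-flight mass spectrometer, operated in positive and negative ionization mode. Mixtures of ~100 pure standards ran on a Zorbax Extend-C18 column (2.1 × 50 mm, 1.8 μm) at 100 μL/min, with water and acetonitrile each containing 0.1% formic acid and dead and dwell volumes of 40 μL and 900 μL. Retention time was read from adduct peaks picked by computer and checked manually.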

| SMILES | RP-LC retention time |
| --- | --- |
| Cc1ccccc1OCC(O)CN1CCN(Cc2ccc3c(c2)OCO3)CC1 (stereo unspecified) | 566 s |
| COc1cc(/C=C2/C(=O)N(c3ccccc3)N=C2C)ccc1OCC(=O)Nc1ccccc1 | 1080 s |
| Cc1cccc(N2CCN(c3ccc(SCC(=O)Nc4cccc(F)c4)nn3)CC2)c1 | 896 s |
| CCCn1cc(S(=O)(=O)Nc2cc(Cl)ccc2OC)c2cccnc21 | 995 s |
| COc1cc(-c2nnc(SCC(=O)N3CCCC(C)C3)o2)cc(OC)c1OC (stereo unspecified) | 889 s |
| CC1(C(=O)NCc2ccc3c(c2)OCO3)CCN(C(=O)Nc2ccccc2C(F)(F)F)CC1 | 812 s |
| Cc1cc(C)cc(NC(=O)C2CCN(S(=O)(=O)c3ccc4c(c3)NC(=O)C(C)O4)CC2)c1 (stereo unspecified) | 903 s |
| CC(C)(C)C(=O)N1CCCC(c2nc(CCNC(=O)C3CC3)cs2)C1 (stereo unspecified) | 710 s |
| COc1ccc(NC(=O)c2cc(C(F)(F)F)n(C)n2)c(OC)c1 | 998 s |
| COCCNC(=O)C(=O)NCC1CCN(C(=O)c2ccccc2F)CC1 | 609 s |
| CC(C)c1noc(C2Cc3ccccc3N2C(=O)NC2CCCC2)n1 (stereo unspecified) | 650 s |
| Cc1nc2c(c(C)nn2C(C)(C)C)c(C)c1CCC(=O)N1CCN(c2ccccn2)CC1 | 731 s |
| COCc1nc2cccnc2n1C1CCN(C(=O)Nc2cc(C)cc(C)c2)CC1 | 747 s |
| Cc1nn(Cc2nc(-c3ccc(NC(=O)C4CCC4)cc3)oc2C)c(C)c1C | 881 s |
| Cc1ccc(Sc2nccnc2N2CCCC(C(=O)NCc3ccc4c(c3)OCO4)C2)cc1 (stereo unspecified) | 1060 s |
| CCN1C(=O)c2cc(S(=O)(=O)NCc3ccccc3F)ccc2Oc2cccnc21 | 1010 s |
| COc1ccccc1NS(=O)(=O)c1cn(C(C)C)c2ncccc12 | 886 s |
| Cc1ccc(Cl)cc1NC(=O)C1CCCN(c2nc3ccccc3nc2C(F)(F)F)C1 (stereo unspecified) | 1350 s |
| CCCn1cc(C(=O)NCc2ccccn2)c2cccnc21 | 595 s |
| O=S(=O)(c1cccnc1)N1CCN(Cc2nnnn2-c2ccc(F)c(F)c2)CC1 | 733 s |
| Cc1cc(NC(=O)N2CCCC(C)(C(=O)NCc3ccccc3C)C2)ccc1Br (stereo unspecified) | 1100 s |
| CCN1CCN(c2ccc(-c3ccc(OC)c(S(=O)(=O)N4CCOCC4)c3)nn2)CC1 | 585 s |
| COc1ccccc1NC(=O)Cn1c(=O)n(-c2ccc(F)cc2)c(=O)c2c1cc(C)n2C | 833 s |
| CCCNC(=O)C1CCN(c2ccc(SCC(=O)Nc3ccc(OC)c(Cl)c3)nn2)CC1 | 654 s |
| CC(C)(C)NC(=O)c1csc(-c2ccc(N3CCCC3)nc2)n1 | 670 s |
| Cc1cc(-n2nnc(C(=O)N3CCC(N4CCCCC4)CC3)c2-c2ccncc2)ccc1F | 602 s |
| CC(C)(C)c1ccc(-c2nc(N3CCOCC3)c3ccccc3n2)cc1 | 821 s |
| Cc1cccc(-c2nc(-c3ccc(-n4cccn4)nc3)no2)c1 | 1330 s |

Continued, values first:

| RP-LC retention time | SMILES |
| --- | --- |
| 818 s | Cn1nccc1-c1cccc(-c2noc(-c3ccccn3)n2)c1 |
| 856 s | O=C(CN1C(=O)c2ccccc2C1=O)Nc1nnc(-c2ccc3c(c2)CCCC3)o1 |
| 617 s | COc1ccc(N2CCN(C(=O)c3cn(-c4ccc(NC(C)=O)cn4)cn3)CC2)cc1 |
| 739 s | COc1ccc(CC(C)(O)CNC(=O)c2cc(C)oc2C)cc1 (stereo unspecified) |
| 654 s | Cc1ccc2nc(-c3ccc(C)c(NC(=O)C(C)C)c3)[nH]c2c1 |
| 787 s | COc1ccc(N2CC(c3noc(-c4cc(OC)c(OC)c(OC)c4)n3)CC2=O)cc1 (stereo unspecified) |
| 585 s | COc1ccc(CNC(=O)CN2CCc3[nH]c4cc5c(cc4c(=O)c3C2)OCCO5)cc1OC |
| 814 s | Cc1cc(C)c(S(=O)(=O)N2CCC[C@@H]2C(=O)NCCc2csc(C)n2)c(C)c1 |
| 969 s | O=C(NCCc1ccc(Cl)cc1)c1nc(Cn2c(=O)oc3ccccc32)no1 |
| 630 s | Cc1nnc(NC(=O)CCc2csc(NC(=O)c3ccco3)n2)s1 |
| 672 s | O=C(CCn1cnc2cc(-c3noc(-c4cccs4)n3)ccc21)N1CCOCC1 |
| 811 s | CCn1cc(C)c(C(=O)O)c1CC(=O)Nc1ccc(F)cc1F |
| 1120 s | Cc1ccc(C2CC(=O)N(c3ccc(C(C)C)cc3)C(=O)C2)cc1 |
| 1030 s | O=C1CC(c2nc(-c3cccc(Cl)c3)no2)CN1c1ccc2c(c1)OCO2 (stereo unspecified) |
| 786 s | C=CCn1c(=O)c2c(nc3n2CCN3c2ccc(OC)cc2)n(C)c1=O |
| 569 s | CN1CCN(CCCNC(=O)CC2CCN(C(=O)c3cc4cc(Cl)ccc4[nH]3)CC2)CC1 |
| 658 s | O=C(c1nnc(-c2ccc(S(=O)(=O)N3CCCC3)cc2)o1)N1CCN(C2CCCCC2)CC1 |
| 806 s | CCOC(=O)C(C)Sc1nnc(NC(=O)Cc2ccc(OC)cc2)s1 (stereo unspecified) |
| 980 s | O=C(CN1C(=O)CC(c2cccs2)=Nc2ccccc21)Nc1ccccc1Cl |

| RP-LC retention time | SMILES |
| --- | --- |
| 852 s | Cc1ccc(NC(=O)C2CCCN(S(=O)(=O)c3c[nH]c(C(=O)N4CCCC4)c3)C2)cc1Cl (stereo unspecified) |
| 602 s | Cn1c(CNC(=O)C2CCc3sc(C(=O)N4CCCC4)cc3C2)nc2ccccc21 (stereo unspecified) |
| 796 s | CSc1ccccc1C(=O)NCc1cc(-c2cccs2)on1 |
| 1170 s | CCOc1ccccc1NC(=O)CSc1ncc(-c2cccc(Br)c2)o1 |
| 881 s | CCN(CC)C(=O)C1CCCN(c2ncnc3c2cnn3-c2ccccc2)C1 (stereo unspecified) |
| 761 s | O=C(NCc1ccco1)c1nc2ccccn2c1-c1ccsc1 |
| 643 s | Cc1nnc(SCC(=O)NCc2ccccc2)c2nn(-c3ccccc3)c(C)c12 |
| 870 s | COC(=O)c1ccc(NC(=O)C(=O)NCCOc2ccc(F)cc2)cc1 |
| 708 s | O=S(=O)(Nc1ccc(Cn2cncn2)cc1)c1cc(F)cc(F)c1 |
| 640 s | COc1cccc(N2CCN(CC(O)c3ccc4c(c3)OCO4)CC2)c1 (stereo unspecified) |
| 942 s | O=C(CSc1ccc(NC(=O)c2cccs2)nn1)Nc1cccc(Cl)c1Cl |
| 697 s | CCn1nccc1C(=O)Nc1ccc2sc(C)nc2c1 |
| 1050 s | Cc1ccc(N2C(=O)N(Cc3ccccc3F)S(=O)(=O)c3cccnc32)cc1 |
| 1300 s | CC(C)Cc1noc(C2(F)CCN(S(=O)(=O)c3ccc(Cl)c(Cl)c3)CC2)n1 |
| 604 s | Cc1cc(N2CCN(C)CC2)nc2ccc(NC(=O)Nc3ccccc3Cl)cc12 |
| 930 s | CCCCCNC(=O)C1CCN(c2ccc(Sc3cc(C)ccc3C)nn2)CC1 |
| 603 s | Cc1ccc(-c2cc(C(=O)N3CCN(C)CC3)[nH]n2)cc1C |
| 573 s | CCN(CC)CCNC(=O)C1CCN(c2nc3cccnc3s2)CC1 |
| 681 s | O=C(CSCC(=O)N1CCOCC1)Nc1nc(-c2ccc3c(c2)OCO3)cs1 |
